One test deals with Osteocalcin. In words: Mouse model of glucocorticoid-induced osteoporosis: plasma osteocalcin. It counts as in vivo. Conditions: mice; for % Inhibition of Osteocalcin, (−) Inhibitor: control diet; for % Inhibition of Osteocalcin, (+) Inhibitor: diet with Compound B. The text has this: (§1) Purpose: The purpose of this experiment was to determine if inhibiting 11β-HSD-1 in mice results in protection from prednisolone-induced bone loss over a 28-day period, while maintaining the same anti-inflammatory efficacy against lipopolysaccharide(LPS)-induced TNFα.
(§2) Animals: Female Swiss Webster mice from Charles River Laboratories (CFW mice) were used in this study. Mice were 10 weeks old at the start of the study. Two identical prednisolone dose responses were run with a vehicle control (n=12), 5, 1.5, and 0.5 mg/kg dosed for 28 days (n=8 each), and 1.5 mg/kg dosed for 27 days (n=8, to determine if prednisolone needed to be on board to affect tumor necrosis factor-alpha(TNFα), procollagen type 1 N-terminal propeptide(P1NP), and Osteocalcin). […] The total number of animals used was 88.
(§3) Experimental Design: All animals were placed on the control diet (Research Diets Rodent Diet with 60 kcal % Fat: D12492i) upon arrival. […] Also on this day, animals were weighed for baselines and ear-tagged for identification. On day 1 of the study, all animals were injected intraperitoneally (i.p.) with 10 mg/kg of calcein (Sigma #C0875) in 2% sodium bicarbonate (Sigma #S6014, dissolved in deionized water). […] On day 27, 4 animals from each vehicle control group were challenged with 5 mg/kg of 11-dehydrocorticosterone (11-DHC [Steraloids #Q3690-000]) p.o., and plasma was collected 30 minutes later for corticosterone analysis by mass spec. […] Thirty minutes later, all groups were challenged with 0.1 mg/kg of LPS (Sigma #L4130) to induce TNFα. […] Right leg bones, left leg bones, and the spinal columns of all mice were collected and stored as follows:
Osteocalcin was measured using the Millipore Milliplex Mouse Osteocalcin Single-Plex Kit. The protocol was followed exactly as outlined in the kit. Samples were read on a BioRad Bio-Plex System, model # Luminex 100 and Bio-Plex Manager 4.1.1 software.

The next test concerns TNFα. In words: Mouse model of glucocorticoid-induced osteoporosis: LPS-induced TNFα. It counts as in vivo. Conditions: mice, LPS 0.1 mg/kg challenge; for % Inhibition of TNFα, (−) Inhibitor: control diet; for % Inhibition of TNFα, (+) Inhibitor: diet with Compound B.
Excerpt: as §1, §2, §3
TNFα was measured using the Mouse […] Quantikine ELISA kit from R&D Systems. The protocol was followed as outlined in the kit. Samples were read using a Molecular Devices Spectra Max 250 plate reader and Soft Max Pro 4.8 software.

Test [1] deals with plasma osteocalcin. In words: Study A: prednisolone-induced osteocalcin reduction in rats. It counts as in vivo. Conditions: prednisolone 10 mg/kg po, 4 hour time point. The text has this: Prednisolone (active GC) administration to rats induces a variety of acute physiological effects including an increase in liver tyrosine amino transferase, increase in serum free fatty acids, increase in liver glycogen levels, hyperglycemia, decrease in osteocalcin, among others. Osteocalcin is of particular interest since a decrease in this hormone leads to decreased bone formation, increasing the potential for osteoporosis. Administration of an 11β-HSD-1 inhibitor would be expected to reduce local reactivation of prednisolone from prednisone in the bone or relevant tissue, and thereby reduce loss of osteocalin levels. […] Prednisone is reactivated, however, to prednisolone in the liver, bone and other tissues where 11β-HSD-1 is expressed. By blocking this reactivation through the use of an 11β-HSD-1 inhibitor, the exposure of active glucocorticoid in bone would be minimized. […] To validate this hypothesis, effects of the 11β-HSD-1 inhibitor (compound A) on prednisolone-induced osteocalcin reduction was evaluated in rats using two separate protocols as indicated in the Table 8 below.
In Study A, rats were pre-dosed with Compound A at 30 mg/kg 1 hour prior to administration with the active glucocorticoid, prednisolone, at 10 mg/kg, po. At 2 and 4 hours after dosing prednisolone, rats were sacrificed, and blood evaluated for levels of osteocalcin.

Test [2] deals with Trabecular bone at Femoral Metaphysis. In words: Mouse model of glucocorticoid-induced osteoporosis: femur histomorphometry. It counts as in vivo. Conditions: mice; for % Increase in dLS/BS, (−) Inhibitor / % Inhibition of BFR/BV, (−) Inhibitor / % Inhibition of MAR, (−) Inhibitor: control diet; for % Inhibition of MAR, (+) Inhibitor / % Increase in BFR/BV, (+) Inhibitor / % Increase in dLS/BS, (+) Inhibitor: diet with Compound B.
Excerpt: as §1, §2, §3
Left leg bones were removed, cleaned, and cut identically to the right leg bones. However, left legs were separated at the knee joint by carefully teasing apart with a scalpel.
Femurs were fixed in 4% paraformaldehyde for 48 hours, and transferred to 30% sucrose for 24 hours before embedding in a CMC (carboxymethylcellulose) block. Blocks were frozen in liquid nitrogen-cooled hexanes (−60° C. or colder) for 3-5 minutes, and stored at −80° C. Femurs were then sectioned on a cryomicrotome.
Bone was measured from 8-10 fields per femur, with each field being 400×500 microns in size. All dynamic measurement calculations were made from scoring the second and third fluorochrome labels, which were administered 11 days apart. OsteoMeasure software was used to obtain all values.
Bone formation rate/bone volume (BFR/BV) refers to the volume of new bone formed per unit of time, and is measured as a percent per day. BFR is the most significant measure of bone formation.
Mineral apposition rate (MAR) refers to the distance between two fluorochrome labels divided by the number of days between label administration, and is indicative of osteoblastic activity.
Double labeled surface/bone surface (dLS/BS) refers to the percentage of trabecular bone surface which is double-labeled, and is another readout indicative of bone formation.

In test [3] the test system is P1NP (N-terminal propeptide of type I procollagen). Description: Mouse model of glucocorticoid-induced osteoporosis: plasma P1NP. It counts as in vivo. Particulars: mice; for % Inhibition of P1NP, (−) Inhibitor: control diet; for % Inhibition of P1NP, (+) Inhibitor: diet with 873 mg Compound B/kg.
Excerpt: as §1, §2, §3
N-terminal propeptide of type I procollagen (PINP) was measured using the Rat/Mouse PINP EIA kit from Immunodiagnostic Systems. The protocol was followed as outlined in the kit, except for that sample dilutions were made in a separate plate instead of directly in the ELISA plate. Samples were read using a Molecular Devices Spectra Max 190 plate reader and Soft Max Pro 5.2 software.

In test [4] the test system is inflammation, tissue destruction, bone erosion. Conditions: animal models of RA; cited from earlier work.
Test [5] deals with plasma osteocalcin. Description: Study B: prednisone-induced osteocalcin reduction in rats. Particulars: vehicle pre-treatment, prednisone 10 mg/kg po, 4 hours later. It counts as in vivo. From the text:
Prednisolone (active GC) administration to rats induces a variety of acute physiological effects including an increase in liver tyrosine amino transferase, increase in serum free fatty acids, increase in liver glycogen levels, hyperglycemia, decrease in osteocalcin, among others. Osteocalcin is of particular interest since a decrease in this hormone leads to decreased bone formation, increasing the potential for osteoporosis. Administration of an 11β-HSD-1 inhibitor would be expected to reduce local reactivation of prednisolone from prednisone in the bone or relevant tissue, and thereby reduce loss of osteocalin levels. […] Prednisone is reactivated, however, to prednisolone in the liver, bone and other tissues where 11β-HSD-1 is expressed. By blocking this reactivation through the use of an 11β-HSD-1 inhibitor, the exposure of active glucocorticoid in bone would be minimized. This example would pertain to normal older individuals as well where cortisol levels increase with age, and likely contribute to age-dependent osteoporosis. This would be an acute study design. To validate this hypothesis, effects of the 11β-HSD-1 inhibitor (compound A) on prednisolone-induced osteocalcin reduction was evaluated in rats using two separate protocols as indicated in the Table 8 below.

Test [6] has as its system markers of bone resorption. Conditions: bone samples, healthy human volunteers, orally dosed; cited from earlier work.
The subject of the next test is insulin sensitivity. Particulars: humans; cited from earlier work.
Setting [7] is: prednisolone 0.5 mg/kg p.o. daily 28 days.
The mark [8] stands for this setting: prednisolone 5 mg/kg, p < 0.05 vs. (−) inhibitor.
Where [9] appears, read: prednisolone 0.5 mg/kg, p < 0.05 vs. vehicle control.

Results on 5 compounds are retold here after patent publication US8871208B2, “11-β-hydroxysteroid dehydrogenase type 1 (11β-HSD1) inhibitors and uses thereof” (AbbVie Inc., priority 2009, dated 2014).

Marks after values point to notes of the source that are not given here.

As for `C[C@]12C=CC(=O)C=C1CC[C@@H]1[C@@H]2[C@@H](O)C[C@@]2(C)[C@H]1CC[C@]2(O)C(=O)CO` [Prednisolone, prednisolone, reference compound], the “% Inhibition of Osteocalcin, (−) Inhibitor” value with Osteocalcin (prednisolone 0.5 mg/kg) was 10%; in the test on Osteocalcin (prednisolone 5 mg/kg), 45%. The “% Inhibition of TNFα, (−) Inhibitor” value in the test on TNFα (prednisolone 0.5 mg/kg) amounted to 80%; in the test with TNFα (prednisolone 5 mg/kg), 98%; in the test on TNFα (prednisolone […]) it was 95%. For the same compound, the “plasma osteocalcin after prednisolone” value with plasma osteocalcin [1] was “significant reductions in plasma osteocalcin”. For the same compound, the “% Increase in dLS/BS, (−) Inhibitor” value in test [2] (prednisolone 0.5 mg/kg) and in test [2] (prednisolone 5 mg/kg) was “No Increase” each time. The “% Inhibition of BFR/BV, (−) Inhibitor” value was “No Inhibition” in test [2] (prednisolone 0.5 mg/kg) and 27% in [2] (prednisolone 5 mg/kg). Besides, the “% Inhibition of MAR, (−) Inhibitor” value came out at 33% in test [2] (prednisolone 0.5 mg/kg) and 52% in [2] (prednisolone 5 mg/kg). In addition, the figures for the “% Inhibition of P1NP, (−) Inhibitor” value in test [3] (setting [7]) and in [3] (prednisolone 5 mg/kg p.o. daily 28 days) were 33% and 51%, respectively.

Turning to `CC1(C)[C@@H](O)CC[C@]2(C)[C@H]3C(=O)C=C4[C@@H]5C[C@@](C)(C(=O)O)CC[C@]5(C)CC[C@@]4(C)[C@]3(C)CC[C@@H]12` [glycyrrhetinic acid], the “effect on inflammation, tissue destruction and bone erosion” value in [4] was “reduced inflammation and tissue destruction as well as bone erosion”.

With `CC(C)(Oc1ccc(F)cc1Cl)C(=O)NC1C2CC3CC1CC(S(C)(=O)=O)(C3)C2` (stereo not shown) [Compound B, 2-(2-chloro-4-fluorophenoxy)-2-methyl-N-[(E)-5-(methylsulfonyl)-2-adamantyl]propanamide], the “% Inhibition of Osteocalcin, (+) Inhibitor” value was determined as 18% in the test with Osteocalcin (prednisolone 0.5 mg/kg) and 28%* in the test on Osteocalcin (setting [8]). For the same compound, the “% Inhibition of TNFα, (+) Inhibitor” value is 80% in the test with TNFα (prednisolone 0.5 mg/kg), 98% in the test on TNFα (prednisolone 5 mg/kg) and 94% in the test on TNFα (prednisolone […]). In addition, the “% Inhibition of MAR, (+) Inhibitor” value in test [2] (prednisolone 0.5 mg/kg) turned out to be 9%; in [2] (prednisolone 5 mg/kg), 23%. The “% Increase in BFR/BV, (+) Inhibitor” value in [2] (setting [9]) was 47%^#; in test [2] (setting [8]) it was 30%*. Also, the “% Increase in dLS/BS, (+) Inhibitor” value in [2] (setting [9]) came out at 22%^#; in [2] (prednisolone 5 mg/kg, p < 0.05 vs. vehicle control) it was 46%^#. For the same compound, the “% Inhibition of P1NP, (+) Inhibitor” value worked out at 25% in test [3] (setting [7]) and 28% in [3] (prednisolone […] p.o. daily 28 days).

Regarding `C[C@]12C=CC(=O)C=C1CC[C@@H]1[C@@H]2C(=O)C[C@@]2(C)[C@H]1CC[C@]2(O)C(=O)CO` [prednisone], the “plasma osteocalcin after prednisone challenge” value with plasma osteocalcin [5] is given as “significant reduction in plasma osteocalcin”.

Take `CC1(C)[C@@H](OC(=O)CCC(=O)O)CC[C@]2(C)[C@H]3C(=O)C=C4[C@@H]5C[C@@](C)(C(=O)O)CC[C@]5(C)CC[C@@]4(C)[C@]3(C)CC[C@@H]12` [carbenoxolone]: the “markers of bone resorption” value in [6] is “significant decrease in markers of bone resorption”. Moreover, in the test on insulin sensitivity, the insulin sensitivity entry is “improves insulin sensitivity”.
